Test results reported in publication PMC12610539, “Determination of Gnetol in Murine Biological Matrices by Liquid Chromatography–Tandem Mass Spectrometry (LC–MS/MS): Application in a Biodistribution Study” (International Journal of Molecular Sciences, 2025).
Like-named read-outs stand apart in the source and are kept apart here.

Experiments:
[1] = Stability of stock solutions (1 mg/mL in DMSO); assay type: physicochemical
Protocol: (§1) Stock solutions of gnetol and resveratrol-^13C6 (IS) were prepared in DMSO at 1 mg/mL, stored at −20 °C, and protected from light. Calibration standards and QC samples were generated by serially diluting the gnetol stock into pooled blank murine plasma or hepatic homogenate. Stability was assessed under a range of storage and handling conditions. Stock solutions of gnetol and the IS were evaluated after storage on ice (0–4 °C) and at −20 °C. Plasma stability of gnetol was examined under short-term conditions (on ice for 6 h), long-term storage (−80 °C for 7 days), three freeze–thaw cycles, and post-preparative holding (autosampler at 4 °C for 24 h). Because stability is difficult to determine directly in intact tissues, only short-term stability in liver homogenate (on ice for 6 h) was assessed; for processed tissue extracts, post-preparative stability was likewise evaluated using liver homogenate as a representative matrix. Stability was considered acceptable when 85–115% of the initial gnetol concentration remained.

tyrosinase = details: cited from earlier work
in vitro = in vitro ADME; details: mouse
Protocol: as §1, with “Stability” for “Stock solutions of gnetol and resveratrol-^13C6 (IS) were prepared in DMSO at 1 mg/mL, stored at −20 °C, and protected from light. Calibration standards and QC samples were generated by serially diluting the gnetol stock into pooled blank murine plasma or hepatic homogenate. Stability”

SARS-CoV-2 main protease = system: SARS-CoV-2 main protease; parameters: method as in PMID 39653224; details: cited from earlier work

SMILES | remaining at 24 h, 1 mg/mL ([1]; stock solution in DMSO, stock solution 1.00 mg/mL, stored at ice-cold temperature for 24 h, n = 6, read-out: Remaining (%, Mean ± SD)) [%] | remaining at 168 h, 1 mg/mL ([1]; stock solution in DMSO, stock solution 1.00 mg/mL, stored at −20 °C for 7 days, n = 6, read-out: Remaining (%, Mean ± SD)) [%] | Tyrosinase inhibition (tyrosinase) | remaining at 15 ng/mL (in vitro; plasma) [%] | remaining at 1200 ng/mL (in vitro; plasma) [%] | remaining at 6 h, 15 ng/mL (in vitro; plasma) [%] | remaining at 6 h, 1200 ng/mL (in vitro; plasma) [%] | remaining at 24 h, 15 ng/mL (in vitro; plasma) [%] | remaining at 24 h, 1200 ng/mL (in vitro; plasma) [%] | remaining at 168 h, 15 ng/mL (in vitro; plasma) [%] | remaining at 168 h, 1200 ng/mL (in vitro; plasma) [%] | remaining at 6 h, 15 ng/mL (in vitro; tissue homogenate) [%] | remaining at 6 h, 1200 ng/mL (in vitro; tissue homogenate) [%] | remaining at 24 h, 15 ng/mL (in vitro; tissue homogenate) [%] | remaining at 24 h, 1200 ng/mL (in vitro; tissue homogenate) [%] | remaining at 24 h, 1 mg/mL [1] [%] | remaining at 168 h, 1 mg/mL [1] [%] | Inhibition of SARS-CoV-2 main protease (SARS-CoV-2 main protease)
Oc1cc(O)cc(/C=C/[13c]2[13cH][13cH][13c](O)[13cH][13cH]2)c1 [Resveratrol-^13C6, trans-3,5,4′-trihydroxystilbene-^13C6, reference compound] | 98.2 ± 3.9 | 100 ± 3.6 |  |  |  |  |  |  |  |  |  |  |  |  |  |  |  | 
Oc1cc(O)cc(/C=C/c2c(O)cccc2O)c1 [Gnetol, trans-2,3′,5′,6-tetrahydroxystilbene] |  |  | potent tyrosinase inhibitor | 103 ± 11.6 | 112 ± 2.2 | 100 ± 7.3 | 106 ± 1.8 | 94 ± 7.7 | 103 ± 7.6 | 97.2 ± 6.3 | 112 ± 2.5 | 96.1 ± 11.3 | 110 ± 4.4 | 104 ± 4.5 | 88.9 ± 6.4 | 101 ± 5.3 | 98.2 ± 3.9 | inhibits the SARS-CoV-2 main protease
